What was measured:
[1] = Inhibition of Influenza A virus (A/Thailand/Kan353/2004(H5N1)) hemagglutinin expressed in human 293T cells coexpressing NA assessed as reduction in HA mediated viral membrane fusion with MDCK cells pretreated for 30 mins with virus followed by infection in MDCK cells measured after 48 hrs by luciferase reporter gene assay; format: cell-based
[2] = Cytotoxicity against MDCK cells after 2 days by MTT assay; format: cell-based, Canis lupus familiaris; details: dog
[3] = Inhibition of Influenza A virus (A/Puerto Rico/8/34(H1N1)) neuraminidase activity infected in MDCK cells assessed as reduction in progeny production using 2-(4-Methylumbelliferyl)-a-D-N-acetylneuraminic acid sodium salt as substrate pretreated for 1 hr with virus followed by 1 hr infection in MDCK cells measured after 48 hrs by fluorescence assay; format: cell-based, Influenza A virus (A/Puerto Rico/8/1934(H1N1))
[4] = tested on: Influenza A virus (A/Thailand/Kan353/2004(H5N1)); assay: Potency index, ratio of CL-385319 IC50 to compound IC50 for inhibition of Influenza A virus (A/Thailand/Kan353/2004(H5N1)) hemagglutinin expressed in human 293T cells coexpressing NA assessed as reduction in HA mediated viral membrane fusion with MDCK cells; format: cell-based
[5] = Influenza A virus, read-out: IC50

SMILES	IC50 [1]	IC50 [1, 5]	CC50 at 48 h [2]	also measured
O=C(NCCCCc1ccc(CCCCNC(=O)c2cc(F)cc(C(F)(F)F)c2)s1)c1cc(F)cc(C(F)(F)F)c1	Not Active			
[N-]=[N+]=NCCCCc1ccc(-c2ccc(-c3ccc(CCCCN=[N+]=[N-])s3)s2)s1	Not Active			
O=C(NCCCCc1ccc(-c2ccc(CCCCNC(=O)c3cc(F)cc(C(F)(F)F)c3)s2)s1)c1cc(F)cc(C(F)(F)F)c1	Not Active			
O=C(NCCCc1ccc(-c2ccc(-c3cccs3)s2)s1)c1cc(F)cc(C(F)(F)F)c1	Not Active			
[N-]=[N+]=NCCCc1ccc(-c2ccc(-c3cccs3)s2)s1		23 µM	> 200 µM	
NCCCc1ccc(-c2ccc(-c3cccs3)s2)s1		2.88 µM	18.9 µM	IC50 [3]: 1.12 µM
BrCCCCc1ccc(-c2ccc(-c3ccc(-c4ccc(CCCCBr)s4)s3)s2)s1	Not Active			
NCCCCc1ccc(-c2ccc(CCCCN)s2)s1		0.0819 µM	26.5 µM	
NCCCCc1ccc(-c2ccc(-c3cccs3)s2)s1		0.029 µM	13.3 µM	Ratio IC50 [4]: 1000; IC50 [3]: 1.24 µM
[N-]=[N+]=NCCCCc1ccc(-c2ccc(-c3ccc(-c4cccs4)s3)s2)s1	Not Active			
NCCCCc1ccc(CCCCN)s1	Not Active			
NCCCCc1ccc(-c2cccs2)s1	Not Active			
BrCCCCc1ccc(CCCCBr)s1	Not Active			
BrCCCc1ccc(-c2ccc(-c3cccs3)s2)s1		12.5 µM	35.3 µM	
O=C(NCC(c1cccs1)N1CCCC1)c1cc(F)cc(C(F)(F)F)c1 (stereo not drawn)		6.41 µM	239 µM	
BrCCCCc1ccc(-c2ccc(-c3cccs3)s2)s1		11.4 µM	23.8 µM	
NCCCCc1ccc(-c2ccc(-c3ccc(-c4cccs4)s3)s2)s1	Not Active			
BrCCCc1ccc(-c2ccc(-c3ccc(CCCBr)s3)s2)s1		6.64 µM	> 200 µM	
[N-]=[N+]=NCCCCc1ccc(-c2ccc(-c3cccs3)s2)s1		11.1 µM	> 200 µM	
NCCCc1ccc(-c2ccc(-c3ccc(-c4cccs4)s3)s2)s1		0.171 µM	> 200 µM	IC50 [3]: 0.768 µM
O=C(NCCCc1ccc(-c2ccc(CCCNC(=O)c3ccccc3Cl)s2)s1)c1ccccc1Cl	Not Active			

SMILES	IC50 [1]	IC50 [1, 5]	CC50 at 48 h [2]	also measured
NCCCCc1ccc(-c2ccc(-c3ccc(CCCCN)s3)s2)s1		0.037 µM	13 µM	IC50 [3]: 3.29 µM
NCCCCc1ccc(-c2ccc(-c3ccc(-c4ccc(CCCCN)s4)s3)s2)s1	Not Active			
O=C(NCCCCc1ccc(-c2cccs2)s1)c1cc(F)cc(C(F)(F)F)c1		19.8 µM	27.4 µM	
BrCCCCc1ccc(-c2ccc(-c3ccc(CCCCBr)s3)s2)s1		0.696 µM	> 200 µM	
BrCCCc1ccc(-c2ccc(-c3ccc(-c4cccs4)s3)s2)s1		74.1 µM	> 200 µM	
BrCCCCc1ccc(-c2ccc(-c3ccc(-c4cccs4)s3)s2)s1	Not Active			
[N-]=[N+]=NCCCc1ccc(-c2ccc(-c3ccc(-c4cccs4)s3)s2)s1		46.1 µM	> 100 µM	
BrCCCc1ccc(-c2ccc(CCCBr)s2)s1	Not Active			
O=C(NCCCCc1ccc(-c2ccc(-c3cccs3)s2)s1)c1cc(F)cc(C(F)(F)F)c1	Not Active			
O=C(NCCCc1ccc(-c2ccc(CCCNC(=O)c3cc(F)cc(C(F)(F)F)c3)s2)s1)c1cc(F)cc(C(F)(F)F)c1	Not Active			
O=C(NCCCc1cccs1)c1cc(F)cc(C(F)(F)F)c1		7.24 µM	40.2 µM	
O=C(NCCCCc1cccs1)c1cc(F)cc(C(F)(F)F)c1		4.73 µM	43.5 µM	
[N-]=[N+]=NCCCCc1ccc(-c2ccc(-c3ccc(-c4ccc(CCCCN=[N+]=[N-])s4)s3)s2)s1	Not Active			
NCCCc1ccc(-c2ccc(-c3ccc(CCCN)s3)s2)s1		4.15 µM	> 200 µM	
O=C(NCCCc1ccc(-c2ccc(-c3ccc(CCCNC(=O)c4cc(F)cc(C(F)(F)F)c4)s3)s2)s1)c1cc(F)cc(C(F)(F)F)c1	Not Active			
O=C(NCCCc1ccc(-c2cccs2)s1)c1cc(F)cc(C(F)(F)F)c1		42.1 µM	46.7 µM	
O=C(NCCCc1ccc(-c2ccc(CCCNC(=O)c3cc(O)cc(O)c3)s2)s1)c1cc(O)cc(O)c1	Not Active			
O=C(NCCc1cccs1)c1cc(F)cc(C(F)(F)F)c1		0.22 µM		
O=C(NCCN1CCCCC1)c1cc(F)cc(C(F)(F)F)c1		10.6 µM	1370 µM	IC50 [3]: 72 µM
NCCCc1ccc(-c2ccc(CCCN)s2)s1	Not Active			
O=C(NCCCCc1ccc(-c2ccc(-c3ccc(CCCCNC(=O)c4cc(F)cc(C(F)(F)F)c4)s3)s2)s1)c1cc(F)cc(C(F)(F)F)c1	Not Active			
